The data set is described as follows: Pharmacokinetic study in rats after oral administration of GR extract (UHPLC-MS/MS of plasma). The class given is in vivo, Sprague-Dawley rats. Particulars: for AUC(0-inf) / AUC(0-t) / Cmax / Tmax / k el / half-life: male, Sprague-Dawley, po; for AUC(0-inf) / AUC(0-t) / Cmax / Tmax / k el / half-life / CL (clearance) / Vz (apparent volume of distribution) / T1/2: rat plasma, GR extract 9.6 g/kg intragastric gavage, mean ± SD, n = 6; for k el: read-out: λz (terminal elimination rate constant) (converted); for half-life: rat, plasma, 9.6 g/kg; for plasma concentration relative to LLOQ: rat plasma following gavage of GR extract. On the procedure:
To each 100 μL plasma sample, 20 μL of methanol and 20 μL of IS (astragalin, 1 μg/mL) were added and vortexed for 1 min. Extraction was carried out with 800 μL of methanol, followed by vortexing for 5 min at room temperature. The sample was centrifuged at 12,000× g for 10 min. Subsequently, 750 µL of supernatant was transferred to a fresh tube and completely dried under flow nitrogen. The residue was reconstituted in 150 μL of 50% methanol (v/v), vortexed for 5 min, and centrifuged for 10 min. Finally, the resulting supernatant was injected into the UHPLC-MS/MS instrument.
In this study, six SPF-grade male Sprague-Dawley rats (six weeks old, 220 ± 10 g), supplied by Beijing HUAFUKANG Bioscience Co., Inc. (Beijing, China), were housed for seven days under controlled conditions (23 ± 2 °C, 50 ± 10% relative humidity) with ad libitum access to food and water. All rats underwent a 12 h fasting period before dosing, but maintained free access to water. This study’s animal care protocols and experimental procedures adhered to institutional policies and were formally authorized by the Animal Ethics Review Committee of Tianjin University of Traditional Chinese Medicine (Tianjin, China; Ref. TCM-LAEC2025003w1430). Each rat received a GR suspension at a dosage of 9.6 g/kg via intragastric gavage. Prior to dosing, 0.2 mL of blood was drawn from the retro-orbital plexus into a heparin-coated tube. Subsequent samples were collected at 0, 0.03, 0.08, 0.17, 0.25, 0.5, 0.75, 1, 2, 4, 6, 8, 12, 24, 36, and 48 h post-dose. Plasma was separated by centrifugation (6000× g, 10 min, 4 °C) and stored at −80 °C until further analysis.
Plasma concentrations of the fourteen target analytes were determined using the MassHunter Workstation (Agilent, USA; ver. B.09.00). Pharmacokinetic analysis was conducted with DAS software (Medical College of Wannan, Wuhu, Anhui, China; v. 3.0) using non-compartmental model to calculate pharmacokinetic parameters, including Cmax, Tmax, AUC(0–t), AUC(0–∞), clearance (CL), the apparent volume of distribution (Vz), and terminal elimination rate constant (λz) for each analyte. All parameters were summarized as mean ± standard deviation (SD) (n = 6), with the SD representing inter-individual variability in the pharmacokinetic behavior.

For orientation: AUC(0-inf) means total exposure, with the tail of the curve extrapolated. In general, AUC(0-t) refers to the area under the concentration-time curve up to a stated or last time point. The term Cmax denotes the peak of the concentration-time curve. A word on the Tmax: it is the time from dosing to the highest level. For orientation: half-life means the time needed for the level to fall by half in the phase considered. On to `O=C(O)c1ccc(O)cc1` [p-Hydroxybenzoic acid], for which the AUC(0-inf) turned out to be 1600 ± 384 ng·h/mL, the AUC(0-t) was 1580 ± 381 ng·h/mL, the peak concentration (Cmax) is 442 ± 147 ng/mL and the Tmax came to 6.6 ± 3 min. Also, the k el is 4.44e-05 s⁻¹, the half-life is 373 ± 200 min, the “CL (clearance)” value is on record as 13.08 ± 2.83 L/h/kg and the “Vz (apparent volume of distribution)” value came to 116.74 ± 60.67 L/kg.

Take `O=Cc1ccc(O)c(O)c1` [3,4-Dihydroxybenzaldehyde]: the “plasma concentration relative to LLOQ” value was “below the LLOQ at the majority of time points”.

In the case of `COc1ccc(-c2cc(=O)c3c(OC)c(OC)c(OC)c(OC)c3o2)cc1OC` [Nobiletin], the “plasma concentration relative to LLOQ” value was “below the LLOQ at the majority of time points”.

With `NC(=O)c1cccnc1` [Nicotinamide], the area under the curve AUC(0-inf) came to 59 ± 18.5 ng·h/mL, the AUC(0-t) came to 59 ± 18.5 ng·h/mL, the highest level (Cmax) was 25 ± 14.2 ng/mL and the time of peak concentration (Tmax) was 30 ± 1.2 min. The k el was 6.11e-05 s⁻¹, the half-life is 164 ± 25.2 min, the “CL (clearance)” value was found to be 370.24 ± 123.45 L/h/kg and the “Vz (apparent volume of distribution)” value is on record as 1588.63 ± 636.70 L/kg.

As to `O=Cc1ccc(O)cc1` [p-Hydroxybenzaldehyde], the AUC(0-inf) is 59.1 ± 21 ng·h/mL, the exposure AUC(0-t) came out at 56.7 ± 23.1 ng·h/mL, the Cmax was determined as 22.5 ± 3.04 ng/mL and the Tmax was determined as 15 ± 0.6 min. Besides, the k el is 7.78e-05 s⁻¹, the half-life is 352 ± 179 min, the “CL (clearance)” value is listed as 377.15 ± 136.83 L/h/kg and the “Vz (apparent volume of distribution)” value was determined as 4220.87 ± 5603.54 L/kg.

Regarding `O=C(CC(O)(CC(=O)OCc1ccc(O[C@@H]2O[C@H](CO)[C@@H](O)[C@H](O)[C@H]2O)cc1)C(=O)OCc1ccc(O[C@@H]2O[C@H](CO)[C@@H](O)[C@H](O)[C@H]2O)cc1)OCc1ccc(O[C@@H]2O[C@H](CO)[C@@H](O)[C@H](O)[C@H]2O)cc1` [ParishinA, Parishin A], the area under the curve AUC(0-inf) was 572 ± 271 ng·h/mL, the area under the curve AUC(0-t) amounted to 531 ± 256 ng·h/mL, the maximum concentration (Cmax) amounted to 210 ± 92.2 ng/mL and the Tmax stood at 13.2 ± 4.2 min. Further, the k el was 1.39e-05 s⁻¹, the half-life is 217 ± 15.6 min, the “CL (clearance)” value was found to be 40.58 ± 14.65 L/h/kg and the “Vz (apparent volume of distribution)” value is given as 808.82 ± 409.11 L/kg.

With `O=C(O)CC(O)(CC(=O)OCc1ccc(O[C@@H]2O[C@H](CO)[C@@H](O)[C@H](O)[C@H]2O)cc1)C(=O)O` (some centres unmarked) [Parishin E], the AUC(0-inf) came out at 13100 ng·h/mL, the area under the curve AUC(0-t) was 11600 ng·h/mL, the Cmax is 2350 ± 1100 ng/mL and the Tmax came out at 45 ± 0.6 min. The k el was 1.39e-05 s⁻¹, the half-life was approximately 480 min, the “CL (clearance)” value came out at 1.58 ± 0.35 L/h/kg and the T1/2 is 8.08 ± 3.33 h. Moreover, the “Vz (apparent volume of distribution)” value was determined as 41.00 ± 29.24 L/kg.

For the compound `OCc1ccc(O[C@@H]2O[C@H](CO)[C@@H](O)[C@H](O)[C@H]2O)cc1` [Gastrodin], the total exposure AUC(0-inf) is 145000 ng·h/mL, the AUC(0-t) worked out at 143000 ng·h/mL, the highest concentration (Cmax) came to 31500 ng/mL and the Tmax worked out at 90 ± 33 min. Moreover, the k el is 1.67e-05 s⁻¹, the half-life was approximately 480 min, the “CL (clearance)” value amounted to 0.14 ± 0.03 L/h/kg and the T1/2 is 8.30 ± 1.14 h. For the same compound, the “Vz (apparent volume of distribution)” value is recorded as 4.29 ± 3.24 L/kg.

As for `Nc1ncnc2c1ncn2[C@@H]1O[C@H](CO)[C@@H](O)[C@H]1O` [Adenosine], the “plasma concentration relative to LLOQ” value is “below the LLOQ at the majority of time points”.

As for `COc1cc2c(cc1OC)[C@@H](Cc1ccc(Oc3cc(C[C@@H]4c5cc(OC)c(OC)cc5CCN4C)ccc3O)cc1)N(C)CC2` [Dauricine], the “plasma concentration relative to LLOQ” value is listed as “below the LLOQ at the majority of time points”.

`COc1cc(C=O)cc(OC)c1O` [Syringaldehyde]: the “plasma concentration relative to LLOQ” value is reported as “below the LLOQ at the majority of time points”.

Take `OCc1ccc(O)cc1` [p-Hydroxybenzyl alcohol]: the area under the curve AUC(0-inf) came out at 674000 ng·h/mL, the AUC(0-t) was found to be 672000 ng·h/mL, the peak level (Cmax) was 90500 ng/mL and the Tmax came out at 97.8 ± 35.4 min. Moreover, the k el is 3.89e-05 s⁻¹, the half-life was 319 ± 93 min, the “CL (clearance)” value worked out at 0.03 ± 0.01 L/h/kg and the “Vz (apparent volume of distribution)” value is on record as 0.24 ± 0.10 L/kg.

As to `O=C(O)CC(O)(CC(=O)OCc1ccc(O[C@@H]2O[C@H](CO)[C@@H](O)[C@H](O)[C@H]2O)cc1)C(=O)OCc1ccc(O[C@@H]2O[C@H](CO)[C@@H](O)[C@H](O)[C@H]2O)cc1` (some centres unmarked) [Parishin B], the area under the curve AUC(0-inf) is 460 ± 222 ng·h/mL, the AUC(0-t) came out at 460 ± 222 ng·h/mL, the highest level (Cmax) was 319 ± 157 ng/mL and the time to peak (Tmax) was determined as 6 ± 3.6 min. For the same compound, the k el was 7.22e-05 s⁻¹, the half-life is 160 ± 15.6 min, the “CL (clearance)” value amounted to 53.95 ± 26.30 L/h/kg and the “Vz (apparent volume of distribution)” value worked out at 215.10 ± 119.59 L/kg.

Values taken from publication PMC12655633, “Simultaneous Quantification of Multiple Analytes in Rat Plasma by UHPLC–MS/MS Following Oral Administration of Gastrodiae Rhizoma Extract for Pharmacokinetic Evaluation” (Molecules, 2025).
